Reference: patent US20030059878A1, “Novel purinoceptor and gene thereof” (TANABE SEIYAKU CO., LTD, priority 2001, published 2003)

Target: T1, fusion protein of TG0022 protein and Giαl (^351Cys→Ile) (Homo sapiens, UniProt P63096+Q9BPV8, C351I)
T1 construct: made in house; host or cells: Sf9 (Spodoptera frugiperda) insect cells, baculovirus vector pVL1392; membrane fraction
Experiment: [35S]GTPγS binding to membrane fraction containing fusion protein of TG0022 protein and Giαl (351Cys→Ile)
Assay type: biochemical
Conditions: Sf9 membrane fraction, TG0022-Giαl (351Cys→Ile) fusion; relative to control without test compound (FIG. 4)
Excerpt: It was assumed that TG0022 protein would be a G protein-coupled receptor as is disclosed in Example 1. Then, by using a membrane fraction containing a fusion protein of TG0022 protein and G protein, the identification of ligand was done by a method of detecting a ligand-dependent binding with GTPγS (guanosine 5′-O-(3-thiotriphosphate)) (Wenzel-Seifert et al., Mol. Pharmacol., Vol. 58, pp. 954-966, 2000; Bahia et al., Biochemistry, Vol. 37, pp. 11555-11562, 1998).
The Sf9 cells were inoculated in a 10 cm plate which was coated with collagen so as to be about 70% confluency, and thereto were added Virus Solution III obtained above (100 μl) and a medium (12 ml), and the mixture was cultivated at 27° C. for 4 days. […]
The membrane fraction obtained in the above (2) (450 μl) was suspended into a reaction buffer (7.54 ml), and thereto was added GDP (10 mM, 10 μl). […] The filter was washed with a cooled reaction buffer (200 μl) three times, and the amount of [^35S]GTPγS (amount bound to the membrane fraction) on the filter was measured by a liquid scintillator. […] GTPγS was calculated by reducting an amount of non-specifically bound [^35S] GTPγS (which was measured in the presence of 10 μM GTPγS) from the amount of [^35S]GTPγS obtained above.

T1 sequence (Q9BPV8+P63096 fused P63096:C351I): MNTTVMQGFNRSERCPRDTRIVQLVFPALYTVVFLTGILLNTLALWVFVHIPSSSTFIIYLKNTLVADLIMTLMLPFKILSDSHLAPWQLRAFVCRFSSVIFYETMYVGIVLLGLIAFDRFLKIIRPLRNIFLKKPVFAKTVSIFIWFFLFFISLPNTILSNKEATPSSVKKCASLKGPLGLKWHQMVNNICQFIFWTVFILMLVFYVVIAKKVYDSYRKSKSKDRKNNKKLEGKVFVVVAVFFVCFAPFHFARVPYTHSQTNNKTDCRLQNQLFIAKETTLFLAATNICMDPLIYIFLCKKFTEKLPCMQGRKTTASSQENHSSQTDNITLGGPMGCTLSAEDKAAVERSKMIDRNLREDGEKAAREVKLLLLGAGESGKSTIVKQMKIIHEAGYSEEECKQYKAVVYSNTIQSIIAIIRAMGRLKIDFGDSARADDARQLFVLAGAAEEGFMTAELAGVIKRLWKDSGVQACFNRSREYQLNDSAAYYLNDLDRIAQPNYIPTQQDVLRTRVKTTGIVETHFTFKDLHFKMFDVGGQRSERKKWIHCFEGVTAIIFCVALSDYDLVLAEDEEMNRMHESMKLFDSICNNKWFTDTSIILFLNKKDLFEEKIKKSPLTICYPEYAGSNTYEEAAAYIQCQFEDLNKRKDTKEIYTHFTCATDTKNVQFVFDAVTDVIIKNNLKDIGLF

| specific binding amount of [^35S] GTPγS | SMILES |
| --- | --- |
| increased dependent on the concentration | Nc1ncnc2c1ncn2[C@@H]1O[C@H](COP(=O)(O)OP(=O)(O)O)[C@@H](O)[C@H]1O [ADP] |
| increased dependent on the concentration | Nc1ncnc2c1ncn2[C@@H]1O[C@H](COP(=O)(O)OP(=O)(O)OP(=O)(O)O)[C@@H](O)[C@H]1O [ATP] |
